Data on 8 compounds can be found in EP4711368A1 (priority 2023, dated 2024).

In series [1] the test system is SD rats. Nature of the series: TC-ED50 after single intravenous injection (Table 2; method not described). Format: in vivo.
In series [2] the test system is SD rats. The experiment in a line: animal or person. Format: in vivo. To be noted: iv; for Minimal effective analgesic dose / Minimal effective anesthetic dose / Onset time / Righting feflex duration / Sedation Duration: rat, in vivo; for minimal effective dose: Rattus norvegicus.
In series [3] the test system is SD rats. The settings on record: rat, in vivo; for MLD: iv.
Where [4] appears, read: read-out: Minimal effective analgesic dose.
Setting [5] is: read-out: Minimal effective anesthetic dose.

Read-outs that look alike come from different tables or passages of the source.
Wherever Onset time is given: test concentration or dose not given here.
Wherever Righting feflex duration is given: test concentration or dose not given here.
Wherever Sedation Duration is given: test concentration or dose not given here.

For `CC(C)OC(=O)OCC1N=C(c2ccccn2)c2cc(Br)ccc2N(C)C1=O` (stereo not drawn) [Compound 55], in the series with SD rats [1], the TC-ED50 is 15.4 mg/kg. In the series on SD rats [2], the “Minimal effective analgesic dose” value is listed as 20 mg/kg, the “Minimal effective anesthetic dose” value was determined as 1.0 mg/kg, the Onset time fell in the range of 0.2 to 0.7 min and the Righting feflex duration lay in the range of 2.4 to 25.4 min. For the same compound, the “Sedation Duration” value with SD rats [2] fell in the range of 11.3 to 141.0 min. In the series with SD rats [3], the TI is >20. 0 and the MLD was above 20 mg/kg.

On to `Cc1cnc2n1-c1ccc(Br)cc1C(c1ccccn1)=NC2COC(=O)C(C)C` (stereo not drawn) [Compound 97], for which the TC-ED50 in the series on SD rats [1] was 9.9 mg/kg. In the series with SD rats [2], the “Minimal effective analgesic dose” value is 10 mg/kg, the “Minimal effective anesthetic dose” value was 2.0 mg/kg, the Onset time is 0.4 to 0.7 min and the Righting feflex duration is 0.7 to 129.9 min. In addition, the “Sedation Duration” value in the series with SD rats [2] was in the range of 16.9 to 187.5 min. Further, in the series with SD rats [3], the TI is 15.0 and the MLD came to 30 mg/kg.

Turning to `CCC(=O)OCC1N=C(c2ccccn2)c2cc(Br)ccc2-n2c(C)cnc21` (stereo not drawn) [Compound 98], the TC-ED50 with SD rats [1] stood at 22.0 mg/kg. In the series on SD rats [2], the “Minimal effective analgesic dose” value is 20 mg/kg, the “Minimal effective anesthetic dose” value came out at 5.0 mg/kg, the Onset time lay in the range of 0.5 to 0.6 min and the Righting feflex duration is 11.6 to 17.4 min. In addition, the “Sedation Duration” value with SD rats [2] lay in the range of 72.5 to 208.7 min. In addition, in the series with SD rats [3], the TI is 6.0 and the MLD worked out at 30 mg/kg.

Consider `Brc1ccc2c(c1)C(c1ccccn1)=NN1CCN=C1N2` [Compound 323], for which the minimal effective dose in the series on SD rats [2] (setting [4]) was 30 mg/kg. Besides, in the series with SD rats [2] (setting [5]), the minimal effective dose is 30 mg/kg. In the series with SD rats [2], the Onset time fell in the range of 0.95 to 1.07 min and the Righting feflex duration lay within 13.12 to 21.08 min. In addition, in the series on SD rats [3] (SD), the TI was above 1.3 and the MLD was above 40 mg/kg.

Take `CC(C)OC(=O)CN1C2=NCCN2N=C(c2ccccn2)c2cc(Br)ccc21` [Compound 325]: the minimal effective dose with SD rats [2] (setting [4]) was determined as 40 mg/kg. Besides, the minimal effective dose in the series with SD rats [2] (setting [5]) is 40 mg/kg. In the series on SD rats [2], the Onset time was 0.65 min, the Righting feflex duration was 3.65 min and the “Sedation Duration” value was 59.22 min. In the series with SD rats [3] (SD), this compound displayed a TI above 1 and an MLD above 40 mg/kg.

Regarding `CCOC(=O)CN1N=C(c2ccccn2)C(Br)=CN(C)C1=O` [Compound 346], the minimal effective dose in the series with SD rats [2] (setting [4]) is 18.4 mg/kg. In the series on SD rats [2] (setting [5]), the minimal effective dose came to 18.4 mg/kg. Further, in the series with SD rats [2], the Onset time stood at 0.57 min, the Righting feflex duration was found to be 2.63 min and the “Sedation Duration” value is 45.10 min. Further, in the series with SD rats [3] (SD), the TI is recorded as above 1 and the MLD was above 18.4 mg/kg.

Turning to `CCOC(=O)CN1N=C(c2ccccn2)C=CN(C)C1=O` [Compound 347], the minimal effective dose in the series on SD rats [2] (setting [4]) is 20 mg/kg. Moreover, the minimal effective dose in the series with SD rats [2] (setting [5]) was determined as 20 mg/kg. Also, in the series on SD rats [2], the Onset time lay in the range of 0.13 to 0.28 min, the Righting feflex duration fell in the range of 2.25 to 4.47 min and the “Sedation Duration” value was 15.35 to 54.20 min. The same compound displayed a TI in the series on SD rats [3] (SD) of 2. In the series on SD rats [3], this compound had an MLD of 40 mg/kg.

As to `CCOC(=O)CN1N=C(c2ccccn2)C(Cl)=CN(C)C1=O` [Compound 348], the minimal effective dose in the series with SD rats [2] (setting [5]) came to 20 mg/kg. Further, in the series with SD rats [2], the Onset time is on record as 0.75 min, the Righting feflex duration is given as 2.03 min and the “Sedation Duration” value is reported as 116.72 min. In the series with SD rats [3] (SD), the TI is recorded as above 1 and the MLD is reported as above 20 mg/kg.

By minimal effective dose is commonly meant the smallest amount tested that counted as effective.
